Common to all, as to assay type: in vivo
The test system of data set [1] is xenografts of the human ACC-derived cell line H295R. The data set is described as follows: H295R xenografts in SCID mice, treatment of established tumors (Examples 1 and 2). On the procedure:
To investigate the potential therapeutic effect of ATR-101 in a mouse model of adrenocortical carcinoma (ACC), xenografts of the human ACC-derived cell line H295R in SCID mice (6-7 week males) were established. After the xenografts had grown to measurable size, the mice were randomized in two groups. The treatment group was administered 300 mg/kg/day ATR-101 by oral gavage. The control group was administered the vehicle without ATR-101. The tumor size was measured using calipers before and on the indicated days after starting administration of ATR-101.
To determine if the effects of ATR-101 on ACC-derived cell line xenotransplants were reproducible, the experiment using xenotransplants of the same H295R cell line in SCID mice (10-11 week males) were repeated.

Data set [2] concerns ACC-derived cell line H295R xenografts. The experiment in a line: ACC xenograft establishment in SCID mice injected with H295R cells (Example 6). On the procedure: FIG. 7 depicts the effects of ATR-101 administration on ACC xenograft establishment. Randomized cohorts of 10 mice injected with H295R cells were administered 700 mg/kg/day ATR-101 for 4 days followed by 300 mg/kg/day ATR-101 or vehicle by gavage beginning 14 days after cell injection. The sizes of the xenografts were measured three times each week.
To investigate the potential therapeutic benefit of ATR-101 in the establishment of ACC xenografts in a mouse model of ACC, ACC-derived cell line H295R was injected in SCID mice (6-7 week males). 1×10^8 cells in 0.2 ml DMEM were injected under the skin in the right dorsal flank regions of SCID mice. Two weeks after injection, the mice were randomized in groups of 10. ATR-101 was administered at 700 mg/kg/day for 4 days, followed by 300 mg/kg/day by oral gavage in 10% DMSO, 0.5% CMC, 0.9% NaCl, 0.2% Tween, pH 3. Control mice were administered vehicle. The tumor size was measured using calipers three times a week. Urinary cortisol was measured at various time points after start of ATR-101 or vehicle administration.

Data set [3] has as its system ACC-derived xenotransplants (H295R). The data set is described as follows: High dose ATR-101 on H295R xenotransplants in SCID mice (Example 7). Particulars: 1,000 mg/kg/day oral; 3 mice per group. The text has this: The effects of a high dose of ATR-101 on ACC-derived xenotransplants in SCID mice were also studied. Xenografts were produced as previously described with 3 mice in the ATR-101 treated group and 3 mice in the control group.

A further data set concerns ACTH-stimulated cortisol. The experiment in a line: Basal and ACTH-stimulated plasma cortisol levels in dogs. On the procedure:
[…] 6 dogs/sex/dosage group were studied. […] Plasma cortisol concentrations (ng/ml) in male and female dogs were determined prior to ACTH stimulation and 0.5 and 1 hour after ACTH stimulation.

Where a name gives a salt, the structure may show the parent alone.

Turning to `CC(C)c1cccc(C(C)C)c1NC(=O)NCC1(c2ccc(N(C)C)cc2)CCCC1` [ATR-101, N-(2,6-bis(1-methylethyl)phenyl)-N′-((1-(4-(dimethylamino)phenyl)cyclopentyl)-methyl)urea hydrochloride], the “decrease in tumor size” value in data set [1] (300 mg/kg/day oral gavage, 8 days after start, n=3, relative standard deviation 32%, control increased 400%) is recorded as 50%. Moreover, in data set [1] (300 mg/kg/day, formulation changed after first week), the “time to resumption of tumor growth after change to Formulation II” value was “within two days”. Besides, the “body condition score (BCS)” value in data set [1] (300 mg/kg/day, treatment group, control 2.0) stood at 3.0. Also, in data set [1] (15 days after beginning of administration, p<0.05), the “tumor size versus control group” value is listed as “significantly smaller”. Besides, the “time to resumption of tumor growth after start of administration” value in data set [1] (Example 2) is recorded as “within eight days”. Moreover, the tumor size result in data set [1] (Example 2, 300 mg/kg/day, six days after start, n=2) is on record as “decreased to undetectable size”. For the same compound, the “tumor size as fraction of size of tumors in control mice” value in data set [1] (Example 2, 13 days after start) is recorded as “one-eighth to one-third”. Also, the “regression of xenograft relative to size before administration” value in data set [1] (all mice with tumors smaller than 300 mm^3) is given as “less than half of its size”. Further, in data set [1] (both experiments), the “time at which tumors exceeded pre-treatment size” value is 8 to 15 days, the “time at which tumors resumed growth after start of administration” value lay in the range of 7 to 9 days and the “time of maximal therapeutic effect after start of administration” value lay within 6 to 8 days. Besides, the “post-mortem tumor weight (mean)” value in data set [1] (first experiment, surviving treated mice, SD of the mean 0.13 g, control 1.23 g, p<0.05) stood at 0.71 g. Further, the “total body weight (mean)” value in data set [1] (first experiment, treatment group, SD of the mean 1 g, control 19 g) turned out to be 24 g. For the same compound, the “effect on tumor growth in mice with large tumors” value in data set [1] (two mice with tumors of 300 mm^3 and 900 mm^3) was “did not halt the tumor growth”. For the same compound, in data set [2] (700 then 300 mg/kg/day), the “body weight versus vehicle” value is on record as “no significant difference” and the “median time until xenograft formation versus vehicle-treated group” value is “more than twice as long”. In addition, in data set [2] (100 days after injection), the survival result is recorded as “All the mice were alive”. Further, the “mice that developed palpable xenografts” value in data set [2] (of 10 mice, 700 mg/kg/day 4 days then 300 mg/kg/day by gavage from 14 days after injection, vehicle 7 of 10) stood at 2. In data set [2] (the 2 xenografts, 100 days after injection), the xenograft size is recorded as less than 500 mm^3. In addition, the “tumor growth versus vehicle treated controls” value in data set [3] is recorded as “significantly reduced tumor growth”. Moreover, the “cortisol during recovery period” value in the data set on ACTH-stimulated cortisol (days 42 and 56, drug-free recovery) is listed as “reversal of the cortisol-suppressive effects”. Besides, the “ACTH responses (plasma cortisol)” value in the data set with ACTH-stimulated cortisol (male and female dogs, 3 mg/kg/day and 30 mg/kg/day, from day 7 through day 14 and day 28) was “Marked drug-associated decreases”.

For the origin of these results see US9877937B2, “Compounds and methods for treating aberrant adrenocortical cell disorders” (Millendo Therapeutics, Inc., priority 2012, dated 2018).
